The results in this text go back to patent US11427556B2, “Urea derivatives as inhibitors of ASK1” (Hepagene Therapeutics (HK) Limited, priority 2017, dated 2022).

Where two headings read alike, the source gives them in different places.

In the experiment the target is T1, Recombinant human ASK1 kinase (Homo sapiens, UniProt Q99683).
T1 construct: purchased Invitrogen Inc
T1 sequence (Q99683 1-1374): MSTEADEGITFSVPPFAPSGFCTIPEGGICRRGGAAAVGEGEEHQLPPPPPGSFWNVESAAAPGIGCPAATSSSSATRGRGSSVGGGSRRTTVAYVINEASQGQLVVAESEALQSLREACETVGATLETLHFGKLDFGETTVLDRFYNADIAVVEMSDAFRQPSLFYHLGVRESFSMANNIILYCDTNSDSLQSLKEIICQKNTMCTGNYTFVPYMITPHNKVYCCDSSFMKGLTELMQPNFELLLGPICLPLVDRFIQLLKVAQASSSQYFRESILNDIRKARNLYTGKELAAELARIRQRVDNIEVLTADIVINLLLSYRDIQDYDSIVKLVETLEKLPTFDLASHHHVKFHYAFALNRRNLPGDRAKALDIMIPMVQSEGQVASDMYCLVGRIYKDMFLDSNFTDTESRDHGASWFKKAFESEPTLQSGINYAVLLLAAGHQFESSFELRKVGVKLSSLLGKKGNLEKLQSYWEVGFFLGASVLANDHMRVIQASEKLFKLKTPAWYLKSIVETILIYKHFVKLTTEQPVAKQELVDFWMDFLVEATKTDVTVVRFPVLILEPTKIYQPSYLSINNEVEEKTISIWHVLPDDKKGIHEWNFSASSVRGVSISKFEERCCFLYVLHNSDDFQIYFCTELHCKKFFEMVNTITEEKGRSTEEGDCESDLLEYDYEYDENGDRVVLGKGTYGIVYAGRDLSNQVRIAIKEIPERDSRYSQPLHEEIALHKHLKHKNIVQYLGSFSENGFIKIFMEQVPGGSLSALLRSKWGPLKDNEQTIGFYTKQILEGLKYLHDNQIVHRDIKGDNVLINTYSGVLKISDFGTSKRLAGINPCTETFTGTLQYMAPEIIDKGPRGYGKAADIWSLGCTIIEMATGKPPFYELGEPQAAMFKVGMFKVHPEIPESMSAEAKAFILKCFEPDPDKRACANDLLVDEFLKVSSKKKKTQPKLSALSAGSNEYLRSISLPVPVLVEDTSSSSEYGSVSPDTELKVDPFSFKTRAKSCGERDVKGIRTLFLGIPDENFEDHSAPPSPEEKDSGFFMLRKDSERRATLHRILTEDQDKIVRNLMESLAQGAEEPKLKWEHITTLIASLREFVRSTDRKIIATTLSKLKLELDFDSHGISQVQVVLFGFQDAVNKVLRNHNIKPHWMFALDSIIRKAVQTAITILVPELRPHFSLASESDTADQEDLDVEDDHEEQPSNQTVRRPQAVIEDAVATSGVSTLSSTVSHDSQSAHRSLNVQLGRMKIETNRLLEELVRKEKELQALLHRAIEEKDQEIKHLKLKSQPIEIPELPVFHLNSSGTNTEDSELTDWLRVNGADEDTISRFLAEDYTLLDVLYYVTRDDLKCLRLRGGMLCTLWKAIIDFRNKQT
Put plainly: ASK1 kinase HTRF assay (HTRF KinEASE-STK, phosphorylation of biotinylated peptide substrate). The format is biochemical. As to the method: Reagents: Recombinant human ASK1 kinase was from Invitrogen Inc. HTRF KinEASETM-STK S3 kit was obtained from Cisbio (Bedford, Mass.). All other reagents were of the highest grade commercially available.
Assay: The assay measures the phosphorylation level of a biotinylatd peptide substrate by the ASK1 kinase using HTRF detection. ASK1 kinase assay is based on HTRF KinEASETM-STK manual from Cisbio. Test compound, 1 uM STK-substrate-biotin, 3 nM of ASK1 kinase are incubated with 1*Kinase buffer with 5 mM MgCl2 and 1 mM DTT.

[1] abbreviates: 3 nM ASK1 kinase, 1 uM STK-substrate-biotin, HTRF detection, read-out: EC50.

As for `C[C@H](CO)n1cnnc1-c1cccc(NC(=O)Nc2cc(C(=O)Nc3ccc(F)cc3)ccn2)n1` [Compound I-159], the EC50 under setting [1] is below 0.05 µM.

Take `CC(C)n1cnnc1-c1cccc(NC(=O)Nc2cc(C(=O)N3CCNCC3)ccn2)n1` [Compound I-139]: the EC50 was below 0.05 µM. Take `CC(C)n1cnnc1-c1cccc(NC(=O)Nc2cc(N3CCCCC3)ccn2)n1` [Compound I-105]: under setting [1], the half-maximal effective concentration (EC50) was below 0.05 µM. On the same count and under the same terms, the value for `CC(C)n1cnnc1-c1cccc(NC(=O)Nc2cc(N3CCNCC3)ccn2)n1` [Compound I-095, 1-(6-(4-Isopropyl-4H-1,2,4-triazol-3-yl)pyridin-2-yl)-3-(4-(piperazin-1-yl)pyridin-2-yl)urea] was below 0.05 µM; that for `C[C@H](CO)n1cnnc1-c1cccc(-n2ccn(-c3ccc(-c4ccccc4)cn3)c2=O)n1` [III-07] was below 0.05 µM; that for `CC(C)n1cnnc1-c1cccc(-n2ccn(-c3ccc(N4CCNCC4)cn3)c2=O)n1` [III-04, 1-(6-(4-Isopropyl-4H-1,2,4-triazol-3-yl)pyridin-2-yl)-3-(5-(piperazin-1-yl)pyridin-2-yl)-1H-imidazol-2(3H)-one] was below 0.05 µM.

`C[C@H](CO)n1cnnc1-c1cccc(N2CCN(c3ccc(C(=O)N4CCCCC4)cn3)C2=O)n1` [Compound V-23]: under setting [1], the EC50 is below 0.05 µM. Same read-out and setting: the result for `CC(C)n1cnnc1-c1cccc(NC(=O)Nc2cc(N(C)C)ccn2)n1` [Compound I-192] reads below 0.05 µM; that for `C[C@H](CO)n1cnnc1-c1cccc(NC(=O)Nc2cc(C(=O)N3CCC(F)(F)CC3)ccn2)n1` [Compound I-144], below 0.05 µM; that for `CC(C)n1cnnc1-c1cccc(NC(=O)Nc2cccc(Cl)n2)n1` [Compound I-185], below 0.05 µM. On the same count and under the same terms, the result for `CC(C)n1cnnc1-c1cccc(NC(=O)Nc2cc(C(=O)N3CC[C@@H]4CCCC[C@H]4C3)ccn2)n1` [Compound I-127] reads below 0.05 µM; that for `C[C@H](CO)n1cnnc1-c1cccc(N2CCN(c3ccc(C(=O)N4CCNCC4)cn3)C2=O)n1` [Compound V-27], below 0.05 µM; that for `CC(C)n1cnnc1-c1cccc(NC(=O)Nc2cc(C(=O)N3CCCc4ccccc43)ccn2)n1` [Compound I-123], below 0.05 µM. Regarding `CC(C)n1cnnc1-c1cccc(NC(=O)Nc2ccc(C3CC3)cn2)n1` [Compound I-046], the EC50 under setting [1] was below 0.05 µM. `CC(C)n1cnnc1-c1cccc(NC(=O)Nc2ccc(C(F)(F)F)cn2)n1` [Compound I-195]: the concentration for a half-maximal effect (EC50) under setting [1] is below 0.05 µM. Still for that read-out and setting: the value for `COc1ccc(NC(=O)Nc2cccc(-c3nncn3C(C)C)n2)nc1` [Compound I-051] was below 0.05 µM.

As to `CC(C)n1cnnc1-c1cccc(NC(=O)Nc2cc(C(=O)Nc3cccc(F)c3)ccn2)n1` [Compound I-157], the EC50 under setting [1] was below 0.05 µM.

Consider `CC(C)n1cnnc1-c1cccc(NC(=O)Nc2cc(-n3cnc(C4CC4)c3)ccn2)n1` [Compound I-170], for which the EC50 under setting [1] was below 0.05 µM.

Take `CC(C)n1cnnc1-c1cccc(NC(=O)Nc2ccc(O)cn2)n1` [Compound I-074]: the EC50 under setting [1] is below 0.05 µM. The same measure, in the same setting: the result for `CC(C)n1cnnc1-c1cccc(NC(=O)Nc2cc(N3CCOCC3)ccn2)n1` [Compound I-094] reads below 0.05 µM; that for `CC(C)n1cnnc1-c1cccc(NC(=O)Nc2cc(-c3ccccc3)ccn2)n1` [Compound I-077], below 0.05 µM. Still for that read-out and setting: the result for `CC(C)n1cnnc1-c1cccc(NC(=O)Nc2cc(C3CCNCC3)ccn2)n1` [Compound I-050] reads below 0.05 µM; that for `COCC(C)n1cnnc1-c1cccc(NC(=O)Nc2ccccn2)n1` (stereo not shown) [Compound I-031], 0.05 to 0.5 µM. On the same count and under the same terms, the value for `C[C@@H](CO)n1cnnc1-c1cccc(NC(=O)Nc2ccccn2)n1` [Compound I-027] was 0.05 to 0.5 µM. For the compound `C[C@H](CO)n1cnnc1-c1cccc(N2CCN(c3ccc(-c4ccccc4)cn3)C2=O)n1` [Compound V-08], under setting [1], the EC50 was below 0.05 µM.

On to `Cc1ccc(NC(=O)Nc2cccc(-c3nncn3[C@H](C)CO)n2)nc1` [Compound I-036], for which, under setting [1], the EC50 is below 0.05 µM. Same read-out and setting: the result for `COc1ccnc(NC(=O)Nc2cccc(-c3nncn3[C@@H](C)CO)n2)c1` [Compound I-054] reads 0.05 to 0.5 µM; that for `CC(C)n1cnnc1-c1cccc(NC(=O)Nc2ccc(N)cn2)n1` [Compound I-209], below 0.05 µM; that for `C[C@H](CO)n1cnnc1-c1cccc(NC(=O)Nc2cc(C(=O)N3C4CCCC3CC4)ccn2)n1` [Compound I-150], below 0.05 µM.

Take `CC(C)n1cnnc1-c1cccc(NC(=O)Nc2ccc(-c3ccncc3)cn2)n1` [Compound I-090]: the EC50 under setting [1] was below 0.05 µM. For `CC(C)n1cnnc1-c1cccc(N2CCN(c3ccc(N4CC5CCC(C4)O5)cn3)C2=O)n1` [Compound V-15], the 50% effective concentration (EC50) under setting [1] was below 0.05 µM.

Turning to `C[C@H](CO)n1cnnc1-c1cccc(NC(=O)Nc2cc(N3CCN(S(C)(=O)=O)CC3)ccn2)n1` [Compound I-103], the EC50 under setting [1] is below 0.05 µM. On the same count and under the same terms, the result for `C[C@H](CO)n1cnnc1-c1cccc(NC(=O)Nc2cc(-c3ccc(C4CC4)nc3)ccn2)n1` [Compound I-002, 3-[4-(6-Cyclopropylpyridin-3-yl)pyridin-2-yl]-1-(6-{4-[(2R)-1-hydroxypropan-2-yl]-4H-1,2,4-triazol-3-yl}pyridin-2-yl)urea] reads below 0.05 µM. Still for that read-out and setting: the result for `C[C@@H]1CCCCN1C(=O)c1ccnc(NC(=O)Nc2cccc(-c3nncn3[C@H](C)CO)n2)c1` [Compound I-121] reads below 0.05 µM; that for `C[C@H](CO)n1cnnc1-c1cccc(NC(=O)Nc2cc(-c3ccccn3)ccn2)n1` [Compound I-085], below 0.05 µM. Still for that read-out and setting: the result for `Cc1cccnc1NC(=O)Nc1cccc(-c2nncn2C(C)C)n1` [Compound I-039] reads below 0.05 µM. `CC(C)n1cnnc1-c1cccc(NC(=O)Nc2cc(-c3ccncc3)ccn2)n1` [Compound I-087]: the EC50 under setting [1] is below 0.05 µM. Still for that read-out and setting: the value for `CC(C)n1cnnc1-c1cccc(NC(=O)Nc2cc(S(C)(=O)=O)ccn2)n1` [Compound I-204] was below 0.05 µM. The same measure, in the same setting: the value for `CC(C)[C@H](N)C(=O)OC[C@@H](C)n1cnnc1-c1cccc(NC(=O)Nc2cc(C(=O)N3CCCCC3)ccn2)n1` [Compound I-013, (2R)-2-[3-[6-([[4-(Piperidine-1-carbonyl)pyridin-2-yl]carbamoyl]amino)pyridin-2-yl]-4H-1,2,4-triazol-4-yl]propyl (2S)-2-amino-3-methylbutanoate] was below 0.05 µM; that for `CC(C)n1cnnc1-c1cccc(N2CCN(c3ccc(N4CCNCC4)cn3)C2=O)n1` [Compound V-01, 1-(6-(4-Isopropyl-4H-1,2,4-triazol-3-yl)pyridin-2-yl)-3-(5-(piperazin-1-yl)pyridin-2-yl)imidazolidin-2-one] was below 0.05 µM.

Take `CC(C)n1cnnc1-c1cccc(NC(=O)Nc2cccc(N3CCCC3)n2)n1` [Compound I-166]: under setting [1], the EC50 lay within 0.05 to 0.5 µM. Still for that read-out and setting: the result for `CC(=O)N1CCN(c2ccnc(NC(=O)Nc3cccc(-c4nncn4C(C)C)n3)c2)CC1` [Compound I-104] reads below 0.05 µM; that for `CC(C)n1cnnc1-c1cccc(NC(=O)Nc2cccc(-c3nncn3C(C)C)n2)n1` [Compound I-171], 0.05 to 0.5 µM; that for `CC(C)n1cnnc1-c1cccc(NC(=O)Nc2cc(C(N)=O)ccn2)n1` [Compound I-108], below 0.05 µM. Still for that read-out and setting: the result for `Cc1ccc(NC(=O)Nc2cccc(-c3nncn3C(C)C)n2)c(F)c1` [Compound I-018] reads 0.05 to 0.5 µM. As to `CC(C)n1cnnc1-c1cccc(NC(=O)Nc2ccncc2)n1` [Compound I-033], the EC50 was in the range of 0.05 to 0.5 µM.

As usually defined, the EC50 is the midpoint of the concentration-response curve.
